Source: patent publication US20210378193A1, “HAPLOID EMBRYOGENESIS” (STICHTING WAGENINGEN RESEARCH, priority 2013, published 2021)

Test system: Capsicum annuum microspore cultures
Assay: Capsicum annuum microspore culture, embryogenic microspores and embryos per bud
Type: cell-based
Details: TSA during the first 20 hours
Procedure: Microspore cultures were performed accordingto Kim M, Jang 1-C, Kim J-A, Park E-J, Yoon M, Lee Y (2008) “Embryogenesis and plant regeneration of hot pepper (Capsicum annuum L.) through isolated microspore culture”: Plant Cell Rep 27 (3):425-434. Flower buds containing vacuolate microspores were selected according to Parra-Vega V, Gonzalez-Garcia B, Segui-Simarro J M (2013) “Morphological markers to correlate bud and anther development with microsporogenesis and microgametogenesis in pepper (Capsicum annuum L.)”: Acta Physiol Plant 35 (2):627-633. Except for “Control” and “DMSO,” the microspores were exposed to TSA (diluted in DMSO) during the first 20 hours of culture.
Cultures were performed according to Kim M, Jang 1-C, Kim J-A, Park E-J, Yoon M, Lee Y (2008) “Embryogenesis and plant regeneration of hot pepper (Capsicum annuum L.) through isolated microspore culture”; Plant Cell Rep 27 (3):425-434. Flower buds containing […] microspores were selected according to Parra-Vega V, Gonzalez-Garcia B, Segui-Simarro JM (2013) “Morphological markers to correlate bud and anther development with microsporogenesis and microgametogenesis in pepper (Capsicum annuum L.)”: Acta Physiol Plant 35 (2):627-633. Except for “Control” and “DMSO,” the microspores were exposed to TSA (diluted in DMSO) during the first 20 hours of culture.

CC(/C=C/C(=O)NO)=C\[C@@H](C)C(=O)c1ccc(N(C)C)cc1 [TSA, trichostatin A]
number of embryogenic cells compared to the control (10-day-old cultures): enhances
embryo yield (embryos per bud) compared to the control (45-day-old cultures): enhances
